Measured values as given in patent publication US10206398B2, “Five-membered C-N-attached aryl sulphide and aryl sulphoxide derivatives as pesticides” (BAYER CROPSCIENCE AKTIENGESELLSCHAFT, priority 2014, dated 2019).
“And” between values parts separate entries of the source, which are not always exact repeats. Identical values can stand only once. Like-named read-outs stand apart in the source and are kept apart here.

Legend:
[1] = log P determination by HPLC on reversed-phase columns (C 18), analogous to OECD Guideline 117; format: physicochemical; settings: for chromatographic logP: reversed-phase HPLC column (C 18); for logP[a]: method [a]; for logP[b]: method [b]
Description: The log P values were determined analogously to OECD Guideline 117 (EC Directive 92/69/EEC) by HPLC (high-performance liquid chromatography) using reversed-phase columns (C 18), by the following methods: [a] The LC-MS determination in the acidic range was effected at pH 2.7 with 0.1% aqueous formic acid and acetonitrile (contains 0.1% formic acid) as eluents; linear gradient from 10% acetonitrile to 95% acetonitrile. log P[a] is also referred to as log P(HCOOH). [b] LC-MS determination in the neutral range was effected at pH 7.8 with 0.001 molar aqueous ammonium hydrogencarbonate solution and acetonitrile as eluents; linear gradient from 10% acetonitrile to 95% acetonitrile. log P[b] is also referred to as log P(neutral). Calibration is effected with solutions of a homologous series of unbranched alkan-2-ones (having 3 to 16 carbon atoms) with known log P values (log P values determined on the basis of the retention times by linear interpolation between two successive alkanones).

Tetranychus urticae = Tetranychus urticae - spray test, OP-resistant (bean leaf discs, 6 days); format: in vivo; settings: after 6 days; for pest or weed control at 500 g/ha: Tetranychus urticae, foliar, 144 h, read-out: efficacy (spider mites killed)
Description: 5. Tetranychus urticae—Spray Test, OP-Resistant
Solvent: 78.0 parts by weight of acetone
• 1.5 parts by weight of dimethylformamide Emulsifier: alkylaryl polyglycol ether
To produce a suitable preparation of active compound, 1 part by weight of active compound is dissolved using the stated parts by weight of solvent and made up with water containing an emulsifier concentration of 1000 ppm until the desired concentration is attained. To produce further test concentrations, the preparation is diluted with emulsifier-containing water.
Discs of bean leaves (Phaseolus vulgaris) infested with all stages of the greenhouse red spider mite (Tetranychus urticae) are sprayed with an active compound preparation of the desired concentration.
After 6 days, the efficacy in % is determined. 100% means that all the spider mites have been killed; 0% means that no spider mites have been killed.

[2] = pH 2.7, HPLC, acidic range, pH 2.7, 0.1% aqueous formic acid and acetonitrile, read-out: log P(HCOOH)
[3] = pH 2.7, method [a], read-out: logP[a]
[4] = pH 7.8, HPLC, neutral range, pH 7.8, 0.001 molar aqueous ammonium hydrogencarbonate and acetonitrile, read-out: log P(neutral)
[5] = pH 7.8, method [b], read-out: logP[b]

Row | SMILES | logP[a] [1] | logP[b] [1] | efficacy (spider mites killed) (Tetranychus urticae; 500 g/ha) | also measured
1 | Cc1cc(F)c(N2C(=O)N(C(=O)NC3CC3)C(C)(C)C2=O)cc1SCC(F)(F)F [Ex. No. 74, N-Cyclopropyl-3-[2-fluoro-4-methyl-5-(2,2,2-trifluoroethylsulphanyl)phenyl]-5,5-dimethyl-2,4-dioxoimidazolidine-1-carboxamide] | – | – | – | chromatographic logP [1, 2]: 3.76; chromatographic logP [1, 3]: 3.76; chromatographic logP [1, 4]: 3.72; chromatographic logP [1, 5]: 3.72; pest or weed control at 500 g/ha (Tetranychus urticae; 500 g/ha): 100%
2 | Cc1cc(F)c(N2C(=O)N(C(=O)NCc3ccccc3)C(C)(C)C2=O)cc1[S+]([O-])CC(F)(F)F (racemic) [compound 87] | 3.48 | 3.38 | 100% | –
3 | Cc1cc(Cl)c(N2C(=O)CN(C(=O)NCc3ccccc3)C2=O)cc1SCC(F)(F)F [compound 57] | 3.81 | 3.61 | 100% | –
4 | Cc1cc(F)c(N2C(=O)CN(C(=O)NCc3ccccc3)C2=O)cc1SCC(F)(F)F [compound 18] | 3.64 | 3.53 | 90% | –
5 | Cc1cc(Cl)c(N2C(=O)CN(C(=O)Nc3ccc(F)cc3)C2=O)cc1SCC(F)(F)F [compound 94] | 4.05 | 3.96 | 100% | –
6 | Cc1cc(C)c([S+]([O-])CC(F)(F)F)cc1N1C(=O)CN(C(=O)NC2CC2)C1=O (stereo not drawn) [compound 60] | 2.24 | 2.17 | 100% | –
7 | Cc1cc(F)c(N2C(=O)CN(C(=O)Nc3ccccc3)C2=O)cc1SCC(F)(F)F [compound 16] | 3.82 | 3.71 | 100% | –
8 | Cc1cc(F)c(N2C(=O)CN(C(=O)Nc3cccc(Cl)c3)C2=O)cc1SCC(F)(F)F [compound 45] | 4.23 | 4.16 | 100% | –
9 | Cc1cc(F)c(N2C(=O)CNC2=S)cc1SCC(F)(F)F [IIa-2, 3-[2-Fluoro-4-methyl-5-(2,2,2-trifluoroethylsulphanyl)phenyl]-2-thioxoimidazolidin-4-one] | – | – | – | chromatographic logP [1, 2]: 2.53; chromatographic logP ([1]; pH 2.7, Table 3, HPLC, acidic range, pH 2.7, read-out: logP[a]): 2.53; chromatographic logP [1, 4]: 2.5; chromatographic logP ([1]; pH 7.8, Table 3, HPLC, neutral range, pH 7.8, read-out: logP[b]): 2.5; pest or weed control at 500 g/ha (Tetranychus urticae; 500 g/ha): 100%
10 | CCNC(=O)N1CC(=O)N(c2cc(SCC(F)(F)F)c(C)cc2C)C1=O [compound 31] | 3.14 | 3.04 | 90% | –
11 | Cc1cc(C)c(N2C(=O)CN(C(=O)NC(C)(C)C)C2=O)cc1SCC(F)(F)F [compound 33] | 3.86 | 3.89 | 100% | –
12 | Cc1cc(F)c(N2C(=O)N(C(=O)NCC(C)C)C(C)(C)C2=O)cc1SCC(F)(F)F [compound 76] | 4.51 | 4.42 | 100% and 90% | –
13 | O=C(NCC(F)(F)F)N1CC(=O)N(c2cc([S+]([O-])CC(F)(F)F)c(Cl)cc2Cl)C1=O (racemic) [compound 114] | 2.88 | 2.91 | 100% | –
14 | Cc1cc(C)c([S+]([O-])CC(F)(F)F)cc1N1C(=O)CN(C(=O)NC(C)(C)C)C1=O (stereo not drawn) [compound 40] | 2.90 | 2.83 | 100% | –
15 | Cc1cc(F)c(N2C(=O)N(C(=O)NCc3ccccc3)C(C)(C)C2=O)cc1SCC(F)(F)F [compound 77] | 4.37 | 4.33 | 100% | –
16 | Cc1cc(F)c(N2C(=O)CN(C(=O)N3CCN(C)CC3)C2=O)cc1SCC(F)(F)F [compound 123] | 2.5 | 1.51 | 100% | –
17 | Cc1cc(Cl)c(N2C(=O)CN(C(=O)Nc3cccc(Cl)c3)C2=O)cc1SCC(F)(F)F [compound 59] | 4.46 | 4.28 | 100% and 90% | –
18 | CCNC(=O)N1CC(=O)N(c2cc([S+]([O-])CC(F)(F)F)c(C)cc2Cl)C1=O (stereo not drawn) [compound 64] | 2.23 | 2.24 | 100% | –
19 | CCNC(=O)N1CC(=O)N(c2cc(SCC(F)(F)F)c(C)cc2Cl)C1=O [compound 51] | 3.19 | 3.13 | 100% | –

Row | SMILES | logP[a] [1] | logP[b] [1] | efficacy (spider mites killed) (Tetranychus urticae; 500 g/ha) | also measured
20 | Cc1cc(F)c(N2C(=O)CN(C(=O)N3CCN(C)CC3)C2=O)cc1[S+]([O-])CC(F)(F)F (stereo not drawn) [compound 127] | 1.72 | 1.61 | 100% | –
21 | Cc1cc(C)c(N2C(=O)CN(C(=O)NC3CC3)C2=O)cc1SCC(F)(F)F [compound 49] | 1.36 | 2.81 | 100% | –
22 | Cc1cc(F)c(N2C(=O)C(C)N(C(=O)NCc3ccccc3)C2=O)cc1[S+]([O-])CC(F)(F)F (mixture of isomers) [compound 90] | 3.12 | 3.05 | 100% | –
23 | Cc1cc(F)c(N2C(=O)C(C)N(C(=O)NCC(C)C)C2=O)cc1SCC(F)(F)F (racemic) [compound 80] | 3.99 | 3.98 | 100% | –
24 | Cc1cc(C)c([S+]([O-])CC(F)(F)F)cc1N1C(=O)CN(C(=O)NCc2ccccc2)C1=O (racemic) [compound 98] | 2.85 | 2.77 | 90% | –
25 | Cc1cc(C)c(N2C(=O)CN(C(=O)NC(C)C)C2=O)cc1SCC(F)(F)F [compound 22] | 3.48 | 3.38 | 100% | –
26 | Cc1cc(Cl)c(N2C(=O)CN(C(=O)NCC(C)C)C2=O)cc1SCC(F)(F)F [compound 52] | 3.93 | 3.78 | 100% | –
27 | O=C(Nc1cccc(Cl)c1)N1CC(=O)N(c2cc(SCC(F)(F)F)c(Cl)cc2Cl)C1=O [compound 109] | 4.49 | 4.56 | 90% | –
28 | O=C(NCc1ccccc1)N1CC(=O)N(c2cc([S+]([O-])CC(F)(F)F)c(Cl)cc2Cl)C1=O (racemic) [compound 115] | 3.23 | 3.29 | 100% | –
29 | Cc1cc(F)c(N2C(=O)CN(C(=O)N3CCS(=O)(=O)CC3)C2=O)cc1[S+]([O-])CC(F)(F)F (stereo not drawn) [compound 134] | 1.66 | 1.69 | 90% | –
30 | Cc1cc(F)c(N2C(=O)C(C)N(C(=O)NC3CC3)C2=O)cc1SCC(F)(F)F (stereo not drawn) [compound 25] | 3.43 | 3.35 | 100% | –
31 | CCNC(=O)N1C(=O)N(c2cc([S+]([O-])CC(F)(F)F)c(C)cc2F)C(=O)C1(C)C (racemic) [compound 83] | 2.73 | 2.70 | 90% | –
32 | Cc1cc(F)c(N2C(=O)CN(C(=O)NC3CC3)C2=S)cc1[S+]([O-])CC(F)(F)F (stereo not drawn) [Ex. No. 4, N-Cyclopropyl-3-[2-fluoro-4-methyl-5-(2,2,2-trifluoroethylsulphinyl)phenyl]-4-oxo-2-thioxoimidazolidine-1-carboxamide] | – | – | – | chromatographic logP [1, 2]: 2.64; chromatographic logP [1, 3]: 2.64; chromatographic logP [1, 4]: 2.65; chromatographic logP [1, 5]: 2.65; pest or weed control at 500 g/ha (Tetranychus urticae; 500 g/ha): 100%
33 | Cc1cc(F)c(N2C(=O)C(C)N(C(=O)NC(C)C)C2=O)cc1SCC(F)(F)F (stereo not drawn) [compound 26] | 3.78 | 3.68 | 100% | –
34 | Cc1cc(C)c(N2C(=O)CN(C(=O)Nc3cccc(CC(F)(F)F)c3)C2=O)cc1SCC(F)(F)F [compound 55] | 4.43 | 4.35 | 90% | –
35 | Cc1cc(Cl)c(N2C(=O)CN(C(=O)Nc3ccc(F)cc3)C2=O)cc1[S+]([O-])CC(F)(F)F (racemic) [compound 100] | 3.17 | 3.09 | 100% | –
36 | Cc1cc(Cl)c(N2C(=O)CN(C(=O)NCC(C)C)C2=O)cc1[S+]([O-])CC(F)(F)F (racemic) [compound 65] | 2.95 | 2.88 | – | efficacy (spider mites killed) (Tetranychus urticae; 100 g/ha): 90%
37 | O=C(Nc1cccc(Cl)c1)N1CC(=O)N(c2cc([S+]([O-])CC(F)(F)F)c(Cl)cc2Cl)C1=O (racemic) [compound 117] | 3.81 | 3.89 | 100% | –
